Results on five compounds are retold here after patent publication US9725442B2, “Heterocyclic derivative having PGD2 receptor antagonist activity” (Shionogi & Co., Ltd., priority 2011, dated 2017).

What is called solubility is how much of the substance goes into solution per volume. Higher therefore signals a readily soluble substance. One may read the Ki as a measure of affinity in units of concentration, obtained from inhibition or displacement.

Structures are written as SMILES. Where two headings read alike, the source gives them in different places.

The target of series [1] is CYP3A4 (Homo sapiens (Human), UniProt P08684). Description: CYP inhibition test, terfenedine hydroxylation. In kind it is in vitro ADME. Particulars: pooled human hepatic microsome, 1 μmol/L terfenedine. The source says: (§1) Using commercially available pooled human hepatic microsome, and employing, as markers, 7-ethoxyresorufin O-deethylation (CYP1A2), tolbutamide methyl-hydroxylation (CYP2C9), mephenyloin 4′-hydroxylation (CYP2C19), dextromethorphan O-demethylation (CYP2D6), and terfenedine hydroxylation as typical substrate metabolism reactions of human main five CYP enzyme forms (CYP1A2, 2C9, 2C19, 2D6, 3A4), an inhibitory degree of each metabolite production amount by a compound of the present compound was assessed.
(§2) The reaction conditions were as follows: substrate, 0.5 μmol/L ethoxyresorufin (CYP1A2), 100 μmol/L tolbutamide (CYP2C9), 50 μmol/L S-mephenyloin (CYP2C19), 5 μmol/L dextromethorphan (CYP2D6), 1 μmol/L terfenedine (CYP3A4); reaction time, 15 minutes; reaction temperature, 37° C.; enzyme, pooled human hepatic microsome 0.2 mg protein/mL; concentration of a compound of the present invention, 1, 5, 10, 20 μmol/L (four points).
(§3) Each five kinds of substrates, human hepatic microsome, or a compound of the present invention in 50 mM Hepes buffer as a reaction mixture was added to a 96-well plate at the composition as described above, NADPH, as a cofactor was added to initiate metabolism reactions as markers and. After the incubation at 37° C. for 15 minutes, a methanol/acetonitrile=1/1 (v/v) solution was added to stop the reaction. After the centrifugation at 3000 rpm for 15 minutes, resorufin (CYP1A2 metabolite) in the supernatant was quantified by a fluorescent multilabel counter and tolbutamide hydroxide (CYP2C9 metabolite), mephenyloin 4′ hydroxide (CYP2C19 metabolite), dextrorphan (CYP2D6 metabolite), and terfenadine alcohol (CYP3A4 metabolite) were quantified by LC/MS/MS.

Series [2] is described as follows: Solubility test (1% DMSO addition, artificial intestinal juice pH 6.8). In kind it is physicochemical. The conditions noted are these: fassgf or other biorelevant, kinetic from dmso stock, artificial intestinal juice pH 6.8, 16 hours at 25° C. How it is done:
A 10 mmol/L solution of the compound of the present invention is prepared with DMSO, and 6 μL of the compound solution is added to 594 μL of an artificial intestinal juice (water and 118 mL of 0.2 mol/L NaOH reagent are added to 250 mL of 0.2 mol/L potassium dihydrogen phosphate reagent to reach 1000 mL) with a pH of 6.8. The mixture is left standing for 16 hours at 25° C., and the mixture is vacuum-filtered. The filtrate is two-fold diluted with methanol/water=1/1 (V/V), and the compound concentration in the filtrate is measured with HPLC or LC/MS/MS by the absolute calibration method.

Series [3] has as its target CYP2C9 (Homo sapiens (Human), UniProt P11712). Description: CYP inhibition test, tolbutamide methyl-hydroxylation. Particulars: pooled human hepatic microsome, 100 μmol/L tolbutamide. In kind it is in vitro ADME.
Text: as §1, §2, §3

The target in series [4] is CYP3A4 enzyme expressed in Escherichia coli (Homo sapiens (Human), UniProt P08684). Briefly: CYP3A4 fluorescent MBI test. The conditions noted are these: pre-reaction time 0 or 30 minutes, substrate 7-BFC; read-out: CYP3A4 MBI, difference between IC50 values with and without preincubation. It counts as in vitro ADME. As to the method: The CYP3A4 fluorescent MBI test is a test of investigating enhancement of CYP3A4 inhibition of a compound by a metabolism reaction, and the test was performed using, as CYP3A4 enzyme expressed in Escherichia coli and employing, as an index, a reaction in which 7-benzyloxytrifluoromethylcoumarin (7-BFC) is debenzylated by the CYP3A4 enzyme to produce a metabolite, 7-hydroxytrifluoromethylcoumarin (HFC) emitting fluorescent light.
The reaction conditions were as follows: substrate, 5.6 μmol/L 7-BFC; pre-reaction time, 0 or 30 minutes; reaction time, 15 minutes; reaction temperature, 25° C. (room temperature); CYP3A4 content (expressed in Escherichia coli), at pre-reaction […], at reaction […] (at 10-fold dilution); concentration of a compound of the present, 0.625, 1.25, 2.5, 5, 10, 20 μmol/L (six points).
An enzyme in a K-Pi buffer (pH 7.4) and a compound solution of the present invention as a pre-reaction mixture were added to a 96-well plate at the composition of the pre-reaction, a part of it was transferred to another 96-well plate so that it was 1/10 diluted by a substrate in a K-Pi buffer, NADPH as a co-factor was added to initiate a reaction as an index (without preincubation) and, after a predetermined time of a reaction, acetonitrile/0.5 mol/L Tris(trishydroxyaminomethane)=4/1 (V/V) was added to stop the reaction. In addition, NADPH was added to a remaining preincubation solution to initiate a preincubation (with preincubation) and, after a predetermined time of a preincubation, a part was transferred to another plate so that it was 1/10 diluted with a substrate and a K-Pi buffer to initiate a reaction as an index. After a predetermined time of a reaction, acetonitrile/0.5 mol/L Tris(trishydroxyaminomethane)=4/1 (V/V) was added to stop the reaction. For the plate on which each index reaction had been performed, a fluorescent value of 7-HFC which is a metabolite was measured with a fluorescent plate reader. (Ex=420 nm, Em=535 nm).

The target of series [5] is CYP2D6 (Homo sapiens (Human), UniProt P10635). Briefly: CYP inhibition test, dextromethorphan O-demethylation. It counts as in vitro ADME. The conditions noted are these: pooled human hepatic microsome, 5 μmol/L dextromethorphan.
Text: as §1, §2, §3

Series [6] addresses CYP1A2 (Homo sapiens (Human), UniProt P05177). Briefly: CYP inhibition test, 7-ethoxyresorufin O-deethylation. It counts as in vitro ADME. Particulars: pooled human hepatic microsome, 0.5 μmol/L ethoxyresorufin.
Text: as §1, §2, §3

Series [7] concerns the target Human DP1 receptor (Homo sapiens (Human), UniProt Q13258). Description: Human DP1 inhibitory activity in DP1-expressing cell (PGD2-induced cAMP). The conditions noted are these: category of cAMP IC50, human DP1 receptor expressing Jurkut cell. In kind it is cell-based. How it is done: Compounds were categorized as AA (cAMP is less than 100 nM) and A (cAMP is more than 100 nM and less than 5000 nM) as shown in Table 99 and 100.

The nature of series [8]: Metabolism stability test. The conditions noted are these: human liver microsomes, 30 minutes, 37° C., NADPH, 0.5 μmol/L of the compound. It counts as in vitro ADME. As to the method:
Using a commercially available pooled human hepatic microsomes, a compound of the present invention was reacted for a constant time, a remaining rate was calculated by comparing a reacted sample and an unreacted sample, thereby, a degree of metabolism in liver was assessed.
A reaction was performed (oxidative reaction) at 37° C. for 0 minute or 30 minutes in the presence of 1 mmol/L NADPH in 0.2 mL of a buffer (50 mmol/L Tris-HCl pH 7.4, 150 mmol/L potassium chloride, 10 mmol/L magnesium chloride) containing 0.5 mg protein/mL of human liver microsomes. After the reaction, 50 μL of the reaction mixture was added to 100 μL of a methanol/acetonitrile=1/1 (v/v), mixed and centrifuged at 3000 rpm for 15 minutes. The compound of the present invention in the supernatant was quantified by LC/MS/MS, and a remaining amount of the compound of the present invention after the reaction was calculated, letting a compound amount at 0 minute reaction time to be 100%. Glucuronidation reaction was in the presence of 5 mM UDP-glucuronic acid in place of NADPH, followed by similar operations.
In general terms: Microsomes from liver hold many membrane-bound enzymes, among them those of drug oxidation.

Series [9] addresses T1, CRTH2 (Homo sapiens (Human), UniProt Q9Y5Y4). Briefly: CRTH2 receptor binding inhibitory activity ([3H]-PGD2 displacement, membranes of CRTH2-expressing K562 cell). The conditions noted are these: [3H]-PGD2 displacement, membrane of CRTH2-expressing K562 cell, read-out: Ki. A digest of the protocol:
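Incubation ran 60 min at room temperature using 20 μg/well membrane from CRTH2-expressing K562 cells in pH 7.4 Tris/HCl (50 mM) with 10 mM MgCl2.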

The target in series [10] is CYP2C19 (Homo sapiens (Human), UniProt P33261). Briefly: CYP inhibition test, mephenyloin 4'-hydroxylation. It counts as in vitro ADME. The conditions noted are these: pooled human hepatic microsome, 50 μmol/L S-mephenyloin.
Text: as §1, §2, §3

Series [11] has as its target T1, CRTH2. Briefly: CRTH2 inhibitory activity in CRTH2-expressing cells (PGD2-induced intracellular calcium increase, K562). It counts as cell-based. The conditions noted are these: 200 nM PGD2, read-out: IC50, inhibition of intracellular calcium concentration increase induced by PGD2. As to the method: CRTH2 inhibitory activities of compounds were determined as inhibition activity of intra-cellular calcium concentration increase induced by PGD2 in CRTH2-expressing cells.
CRTH2-expressing K562 cells were suspended at concentration of 2×10^6 cells/ml in buffer (10 mM HEPES, pH 7.4, 0.1% Bovine serum albumin). Cells were incubated with […] (4 μM) for 30 min at room temperature. Cells were washed, resuspended and mixed with various concentration of compounds of the present invention. After 2 min, cells were treated with 200 nM of PGD2. Then intracellular calcium concentration was measured using intracellular ion analyzer (FDSS3000). Inhibition ratio was defined by comparing intracellular calcium concentration increase with and without compound, and IC50 for each compound was calculated from inhibitory curve.
(In general: Calcium flux is commonly read through the fluorescence of an indicator in the cells.)

The mark [12] stands for this setting: CRTH2 receptor binding, categorized AAAA/AAA.

CYP1A2, sequence (P05177 whole entry): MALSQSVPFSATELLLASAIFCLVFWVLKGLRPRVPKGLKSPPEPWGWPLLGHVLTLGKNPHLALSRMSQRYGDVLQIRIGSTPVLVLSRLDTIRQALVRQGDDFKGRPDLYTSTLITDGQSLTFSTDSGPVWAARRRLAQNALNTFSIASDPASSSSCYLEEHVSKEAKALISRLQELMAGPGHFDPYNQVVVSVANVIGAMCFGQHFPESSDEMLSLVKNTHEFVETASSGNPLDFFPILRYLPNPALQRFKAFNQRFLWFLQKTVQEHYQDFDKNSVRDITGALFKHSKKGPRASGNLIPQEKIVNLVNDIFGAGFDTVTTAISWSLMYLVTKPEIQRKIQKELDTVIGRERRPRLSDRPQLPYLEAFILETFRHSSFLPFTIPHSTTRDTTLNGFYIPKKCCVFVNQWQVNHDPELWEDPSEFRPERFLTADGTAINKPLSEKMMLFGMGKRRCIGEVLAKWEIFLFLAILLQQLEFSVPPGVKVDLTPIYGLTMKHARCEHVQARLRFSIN
Human DP1 receptor, sequence (Q13258 whole entry): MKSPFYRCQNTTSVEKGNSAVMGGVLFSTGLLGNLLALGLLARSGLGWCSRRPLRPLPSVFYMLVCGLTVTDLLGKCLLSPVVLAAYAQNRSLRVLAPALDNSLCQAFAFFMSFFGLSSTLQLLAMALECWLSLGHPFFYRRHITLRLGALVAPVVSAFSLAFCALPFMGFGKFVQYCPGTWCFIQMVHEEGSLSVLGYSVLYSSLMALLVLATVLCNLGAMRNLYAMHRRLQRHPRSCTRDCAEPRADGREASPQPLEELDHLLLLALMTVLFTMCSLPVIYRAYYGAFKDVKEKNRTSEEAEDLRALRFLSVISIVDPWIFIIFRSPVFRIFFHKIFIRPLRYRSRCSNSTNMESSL
CYP2C19, sequence (P33261 whole entry): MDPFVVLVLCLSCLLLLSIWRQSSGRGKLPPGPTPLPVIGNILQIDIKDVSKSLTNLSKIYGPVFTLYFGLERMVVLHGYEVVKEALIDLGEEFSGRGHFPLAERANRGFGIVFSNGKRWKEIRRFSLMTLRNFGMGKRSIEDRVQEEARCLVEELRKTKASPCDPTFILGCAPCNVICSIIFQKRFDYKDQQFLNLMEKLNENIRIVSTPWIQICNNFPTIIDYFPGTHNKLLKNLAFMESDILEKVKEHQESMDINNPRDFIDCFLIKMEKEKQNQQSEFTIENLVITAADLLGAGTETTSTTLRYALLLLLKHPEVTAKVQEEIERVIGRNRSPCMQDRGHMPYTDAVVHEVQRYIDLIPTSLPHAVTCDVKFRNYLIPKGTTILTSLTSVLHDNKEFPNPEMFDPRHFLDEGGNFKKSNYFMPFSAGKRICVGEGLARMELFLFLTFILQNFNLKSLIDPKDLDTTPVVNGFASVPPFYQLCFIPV
CYP3A4, sequence (P08684 whole entry): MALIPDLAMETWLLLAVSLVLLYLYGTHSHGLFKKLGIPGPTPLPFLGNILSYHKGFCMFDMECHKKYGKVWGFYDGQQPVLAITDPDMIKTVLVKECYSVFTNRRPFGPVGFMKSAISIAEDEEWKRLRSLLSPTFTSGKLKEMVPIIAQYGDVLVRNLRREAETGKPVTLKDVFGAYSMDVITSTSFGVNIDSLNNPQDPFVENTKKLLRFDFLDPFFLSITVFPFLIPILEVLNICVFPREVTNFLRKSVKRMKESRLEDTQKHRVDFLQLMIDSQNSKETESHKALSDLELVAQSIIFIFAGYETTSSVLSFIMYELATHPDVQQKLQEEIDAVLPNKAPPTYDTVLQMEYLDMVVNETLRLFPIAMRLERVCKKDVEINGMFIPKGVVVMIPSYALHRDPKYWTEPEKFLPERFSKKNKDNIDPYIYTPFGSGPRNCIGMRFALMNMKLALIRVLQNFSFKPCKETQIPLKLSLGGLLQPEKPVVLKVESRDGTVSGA
T1 sequence (Q9Y5Y4 whole entry): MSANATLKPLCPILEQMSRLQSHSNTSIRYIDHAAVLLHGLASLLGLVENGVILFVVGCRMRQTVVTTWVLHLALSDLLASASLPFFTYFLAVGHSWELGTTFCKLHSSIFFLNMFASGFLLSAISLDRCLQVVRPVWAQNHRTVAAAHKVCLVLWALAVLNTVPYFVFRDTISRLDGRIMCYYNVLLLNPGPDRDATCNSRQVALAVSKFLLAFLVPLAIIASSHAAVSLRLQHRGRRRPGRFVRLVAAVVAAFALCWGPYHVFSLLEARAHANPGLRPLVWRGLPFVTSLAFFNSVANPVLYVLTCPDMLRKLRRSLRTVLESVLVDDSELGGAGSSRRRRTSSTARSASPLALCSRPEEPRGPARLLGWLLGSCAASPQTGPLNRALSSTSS
CYP2D6, sequence (P10635 whole entry): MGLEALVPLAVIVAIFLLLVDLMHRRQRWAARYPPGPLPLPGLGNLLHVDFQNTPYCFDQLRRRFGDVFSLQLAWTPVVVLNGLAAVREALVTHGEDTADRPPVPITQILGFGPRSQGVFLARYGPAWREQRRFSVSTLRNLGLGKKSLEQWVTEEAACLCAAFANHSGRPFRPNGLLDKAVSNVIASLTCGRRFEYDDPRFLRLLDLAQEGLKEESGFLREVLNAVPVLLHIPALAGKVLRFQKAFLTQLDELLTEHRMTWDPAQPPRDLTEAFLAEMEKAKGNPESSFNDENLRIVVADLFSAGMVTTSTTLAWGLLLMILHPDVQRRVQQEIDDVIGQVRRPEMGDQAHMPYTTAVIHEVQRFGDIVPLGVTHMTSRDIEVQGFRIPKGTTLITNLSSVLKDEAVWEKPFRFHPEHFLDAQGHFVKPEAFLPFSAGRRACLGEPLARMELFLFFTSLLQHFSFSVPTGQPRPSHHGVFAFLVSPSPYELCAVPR
CYP2C9, sequence (P11712 whole entry): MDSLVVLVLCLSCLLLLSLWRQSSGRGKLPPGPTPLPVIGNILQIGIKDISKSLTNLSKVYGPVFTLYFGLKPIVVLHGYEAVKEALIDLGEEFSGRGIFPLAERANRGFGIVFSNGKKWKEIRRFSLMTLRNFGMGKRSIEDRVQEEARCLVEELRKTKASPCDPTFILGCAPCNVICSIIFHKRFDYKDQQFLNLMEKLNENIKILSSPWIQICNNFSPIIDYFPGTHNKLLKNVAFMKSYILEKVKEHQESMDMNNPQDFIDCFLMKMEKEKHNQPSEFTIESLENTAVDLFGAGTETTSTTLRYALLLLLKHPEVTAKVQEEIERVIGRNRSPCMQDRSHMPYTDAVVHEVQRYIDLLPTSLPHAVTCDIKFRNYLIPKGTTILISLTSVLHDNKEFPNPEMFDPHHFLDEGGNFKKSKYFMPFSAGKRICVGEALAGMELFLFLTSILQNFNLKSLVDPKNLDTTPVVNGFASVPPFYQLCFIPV
CYP3A4 enzyme expressed in Escherichia coli, sequence (P08684 whole entry): as the sequence (P08684 whole entry) above

On to `CC(C)Oc1ccc(S(=O)(=O)N2C[C@H](n3nc(CC(=O)O)c4ccc(F)cc43)C[C@H]2CO)cc1` [Compound I-9], for which the IC50 is more than 20 µM in [1]; more than 20 µM in series [3]; more than 20 µM in series [5]; more than 20 µM in [6]; 0.1 to 5 µM in [7]; more than 20 µM in series [10]. In series [2], the solubility at 16 h is more than 50 µM. In addition, in series [4], the difference in IC50 with vs without preincubation is not above 3 µM. Moreover, the “remaining rate after reaction (result heading prints '% inhibition')” value in series [8] is reported as 98.7%. In addition, the values for the Ki in [9] (setting [12]) and in series [9] were less than 0.1 µM and 0.0062 µM, respectively.
In turn, `CC(C)Oc1ccc(S(=O)(=O)N2C[C@@H](N3CCCC3)[C@@H](n3nc(CC(=O)O)c4ccc(F)cc43)C2)cc1` [Compound I-47] registered an IC50 in series [7] of 0.1 to 5 µM. Moreover, the “remaining rate after reaction (result heading prints '% inhibition')” value in series [8] stood at 91.8%. Further, the values for the Ki in series [9] (setting [12]) and in [9] were less than 0.1 µM and 0.016 µM, respectively.
For the compound `C[C@@H]1CN(S(=O)(=O)c2ccc(Cl)cc2)C[C@@H]1n1nc(CC(=O)O)c2ccc(F)cc21` [Compound I-49], the IC50 was more than 20 µM in series [1]; more than 20 µM in [3]; more than 20 µM in series [5]; 0.086 µM in [11]; more than 20 µM in series [6]; 0.1 to 5 µM in series [7]. Also, the IC50 in [10] was more than 20 µM. Further, in series [2], the solubility at 16 h is more than 50 µM. Besides, the “remaining rate after reaction (result heading prints '% inhibition')” value in series [8] is 94.7%. In addition, the Ki is less than 0.1 µM in [9] (setting [12]) and 0.00059 µM in series [9].
For the compound `CC(C)Oc1ccc(S(=O)(=O)N2CC[C@H](n3nc(CC(=O)O)c4ccc(F)cc43)[C@@H](C)C2)cc1` [Compound I-74], the IC50 in series [1] is more than 20 µM; in series [3], more than 20 µM; in series [5] it was more than 20 µM; in series [6] it was more than 20 µM; in [7] it was less than 0.1 µM; in series [10], more than 20 µM. In series [2], this compound came in with a solubility at 16 h of more than 50 µM. The Ki in series [9] (setting [12]) is 0.1 to 5 µM; in series [9] it was 0.68 µM.
With `CC(C)Oc1ccc(S(=O)(=O)N2CC[C@H](n3nc(CC(=O)O)c4ccc(F)cc43)[C@H](C)C2)cc1` [Compound I-75], the difference in IC50 with vs without preincubation in [4] was not above 3 µM. The IC50 in series [7] was less than 0.1 µM. The “remaining rate after reaction (result heading prints '% inhibition')” value in series [8] was found to be 99.2%. Besides, in series [9] (setting [12]), the Ki lay in the range of 0.1 to 5 µM.
